Legend:
HTT mRNA = assay: Splicing RT-qPCR assay, canonical (CJ) and alternative (AJ) junction mRNA, K562 cells; type: cell-based; details: Homo sapiens, K562.3 cells, 24 hours; for AC50: read-out: HTT AJ (AC50, increase in AJ mRNA); for IC50: read-out: HTT CJ (IC50, decrease in CJ mRNA)
In short: (§1)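 K562 cells were treated for 24 h at 37 °C with an 11-point 3-fold dilution series (top 10 uM final, DMSO ≤0.25%), then lysed for one-step RT-qPCR of canonical and alternative junctions. ΔΔCt was taken against GAPDH or GUSB and DMSO, converted to RQ by 2^(−ΔΔCt), then to % response.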

MYB mRNA = assay: as above; type: cell-based; details: Homo sapiens, K562.3 cells, 24 hours; for AC50: read-out: MYB AJ (AC50, increase in AJ mRNA); for IC50: read-out: MYB CJ (IC50, decrease in CJ mRNA)
In short: as §1

| SMILES | AC50 (HTT mRNA) [nM] | IC50 (HTT mRNA) [nM] | AC50 (MYB mRNA) [nM] | IC50 (MYB mRNA) [nM] |
| --- | --- | --- | --- | --- |
| Cc1cn2nc(NC(=O)c3ccc(N4CCC(NC5CC5)CC4)c4cn(C)nc34)cc(C)c2n1 [Compound 187, 4-[4-(cyclopropylamino)-1-piperidyl]-N-(2,8-dimethylimidazo-[1,2-b]pyridazin-6-yl)-2-methyl-indazole-7-carboxamide] | 100 to 1000 | 100 to 1000 | 100 to 1000 | 100 to 1000 |
| CCNC1CCN(c2ccc(C(=O)Nc3cc(F)c4nc(C)c(C)n4c3)c3nn(C)cc23)CC1 [Compound 188, 4-[4-(ethylamino)-1-piperidyl]-N-(8-fluoro-2,3-dimethyl-imidazo[1,2-a]pyridin-6-yl)-2-methyl-indazole-7-carboxamide] | > 10000 | > 10000 | > 10000 | > 10000 |
| Cc1nc2c(F)cc(NC(=O)c3ccc(N4CCC(NC5CC5)CC4)c4cn(C)nc34)cn2c1C [Compound 189, 4-[4-(cyclopropylamino)-1-piperidyl]-N-(8-fluoro-2,3-dimethyl-imidazo[1,2-a]pyridin-6-yl)-2-methyl-indazole-7-carboxamide] | > 10000 | > 10000 | > 10000 | > 10000 |
| CCNC1CCN(c2ccc(C(=O)Nc3cc4cn(C)nc4cc3O)c3[nH]ccc23)CC1 [Compound 190, 4-[4-(ethylamino)-1-piperidyl]-N-(6-hydroxy-2-methyl-indazol-5-yl)-1H-indole-7-carboxamide] | > 10000 | > 10000 | > 10000 | > 10000 |
| Cc1cn2cc(NC(=O)c3ccc(N4CCC(NC5CC5)CC4)c4ccoc34)cc(F)c2n1 [Compound 191, 4-[4-(cyclopropylamino)-1-piperidyl]-N-(8-fluoro-2-methyl-imidazo[1,2-a]pyridin-6-yl) benzofuran-7-carboxamide] | 1000 to 10000 | 1000 to 10000 | 100 to 1000 | 100 to 1000 |
| Cc1cn2cc(NC(=O)c3ccc(C4CCC(NC5CC5)CC4)c4cn(C)nc34)cc(F)c2n1 (stereo not drawn) [Compound 192, 4-[4-(cyclopropylamino)cyclohexyl]-N-(8-fluoro-2-methyl-imidazo[1,2-a]pyridin-6-yl)-2-methyl-indazole-7-carboxamide] | 1000 to 10000 | 100 to 1000 | 100 to 1000 | 100 to 1000 |
| CCNC1CCN(c2ccc(C(=O)Nc3cc(F)c4nc(CO)cn4c3)c3nn(C)cc23)CC1 [Compound 193, 4-[4-(ethylamino)-1-piperidyl]-N-[8-fluoro-2-(hydroxymethyl)imidazo[1,2-a]pyridin-6-yl]-2-methyl-indazole-7-carboxamide] | > 10000 | > 10000 | 1000 to 10000 | 100 to 1000 |
| Cc1cn2cc(NC(=O)c3ccc(C4CNCCO4)c4[nH]cnc34)cc(F)c2n1 (stereo not drawn) [Compound 194, N-(8-fluoro-2-methyl-imidazo[1,2-a]pyridin-6-yl)-7-morpholin-2-yl-1H-benzimidazole-4-carboxamide] | 1000 to 10000 | 1000 to 10000 | 100 to 1000 | 100 to 1000 |
| CCNC1CCN(c2cc(F)c(C(=O)Nc3cc(F)c4nc(C)cn4c3)c3ccoc23)CC1 [Compound 195, 7-[4-(ethylamino)-1-piperidyl]-5-fluoro-N-(8-fluoro-2-methylimidazo[1,2-a]pyridin-6-yl)-benzofuran-4-carboxamide] | > 10000 | > 10000 | > 10000 | > 10000 |
| CCNC1CCN(c2ccc(C(=O)Nc3cc(F)c4nc(C)cn4c3)c3nn(C)nc23)CC1 [Compound 196, 7-[4-(ethylamino)piperidin-1-yl]-N-(8-fluoro-2-methyl-imidazo[1,2-a]pyridin-6-yl)-2-methyl-1,2,3-benzotriazole-4-carboxamide] | 100 to 1000 | 100 to 1000 | 100 to 1000 | 100 to 1000 |
| CNC1(C)CCN(c2ccc(C(=O)Nc3cn4cc(C)nc4c(OC)n3)c3nn(C)cc23)CC1 [Compound 197, N-(8-methoxy-2-methylimidazo[1,2-a]pyrazin-6-yl)-2-methyl-4-(4-methyl-4-(methylamino)piperidin-1-yl)-2H-indazole-7-carboxamide] | < 100 | < 100 | < 100 | < 100 |
| CCNC1CCN(c2ccc(C(=O)Nc3cc(F)c4nc(C)cn4c3)c3c2nnn3C)CC1 [Compound 198, 4-(4-(ethylamino)piperidin-1-yl)-N-(8-fluoro-2-methylimidazo[1,2-a]pyridin-6-yl)-1-methyl-1H-benzo[d][1,2,3]triazole-7-carboxamide 2,2,2-trifluoroacetate] | > 10000 | > 10000 | > 10000 | > 10000 |
| CCNC1CCN(c2ccc(C(=O)Nc3cc(F)c4nc(C)cn4c3)c3nnn(C)c23)CC1 [Compound 199, 7-[4-(ethylamino)-1-piperidyl]-N-(8-fluoro-2-methylimidazo[1,2-a]-pyridin-6-yl)-1-methylbenzotriazole-4-carboxamide] | > 10000 | > 10000 | 100 to 1000 | 100 to 1000 |
| CCNC1CCN(c2ccc(C(=O)Nc3cc(F)c4nc(C)oc4c3)c3nn(C)cc23)CC1 [Compound 200, 4-(4-(ethylamino)piperidin-1-yl)-N-(4-fluoro-2-methylbenzo[d]-oxazol-6-yl)-2-methyl-2H-indazole-7-carboxamide] | 1000 to 10000 | 100 to 1000 | < 100 | 100 to 1000 |
| CCNC1CCN(c2ccc(C(=O)Nc3cc(F)c4nc(CC)cn4c3)c3nn(C)cc23)CC1 [Compound 201, 4-[4-(ethylamino)-1-piperidyl]-N-(2-ethyl-8-fluoro-imidazo[1,2-a]pyridin-6-yl)-2-methyl-indazole-7-carboxamide] | 1000 to 10000 | 1000 to 10000 | 1000 to 10000 | 1000 to 10000 |
| CCNC1CCN(c2ccc(C(=O)Nc3cc(F)c4nc(CF)cn4c3)c3nn(C)cc23)CC1 [Compound 202, 4-[4-(ethylamino)-1-piperidyl]-N-[8-fluoro-2-(fluoromethyl)imidazo[1,2-a]pyridin-6-yl]-2-methyl-indazole-7-carboxamide] | 1000 to 10000 | 1000 to 10000 | 100 to 1000 | < 100 |
| Cc1cn2cc(NC(=O)c3ccc(N4CCC(NC5CC56CC6)CC4)c4cn(C)nc34)cc(F)c2n1 (stereo not drawn) [Compound 203, N-(8-fluoro-2-methyl-imidazo[1,2-a]-pyridin-6-yl)-2-methyl-4-[4-(spiro[2.2]pentan-2-ylamino)-1-piperidyl] indazole-7-carboxamide] | 1000 to 10000 | 100 to 1000 | < 100 | < 100 |
| Cc1cn2cc(NC(=O)c3ccc(N4CCC(NC5CC5C)CC4)c4cn(C)nc34)cc(F)c2n1 (stereo not drawn) [Compound 204, N-(8-fluoro-2-methyl-imidazo[1,2-a]pyridin-6-yl)-2-methyl-4-[4-[(2-methyl-cyclopropyl)amino]-1-piperidyl] indazole-7-carboxamide] | 100 to 1000 | 100 to 1000 | < 100 | < 100 |
| Cc1cn2cc(NC(=O)c3ccc(N4CCC(NC5CC5(C)C)CC4)c4cn(C)nc34)cc(F)c2n1 (stereo not drawn) [Compound 205, 4-(4-((2,2-dimethylcyclopropyl)amino)piperidin-1-yl)-N-(8-fluoro-2-methylimidazo[1,2-a]pyridin-6-yl)-2-methyl-2H-indazole-7-carboxamide] | 1000 to 10000 | 1000 to 10000 | < 100 | < 100 |
| CCNC1CCN(c2ccc(C(=O)Nc3cn4cc(C)nc4c(OC)n3)c3nn(C)cc23)CC1 [Compound 206, 4-[4-(ethylamino)-1-piperidyl]-N-(8-methoxy-2-methyl-imidazo[1,2-a]pyrazin-6-yl)-2-methyl-indazole-7-carboxamide] | 100 to 1000 | 100 to 1000 | < 100 | < 100 |
| COc1c(NC(=O)c2c(F)cc(N3CCC(NC4CC4)CC3)c3cn(C)nc23)cn2cc(C)nc2c1F [Compound 207, 4-[4-(cyclopropylamino)-1-piperidyl]-6-fluoro-N-(8-fluoro-7-methoxy-2-methyl-imidazo[1,2-a]pyridin-6-yl)-2-methyl-indazole-7-carboxamide] | < 100 | < 100 | < 100 | < 100 |
| COc1nc2c(C(=O)Nc3cc(F)c4nc(C)cn4c3)ccc(N3CCC(N)CC3)c2s1 [Compound 208, 7-(4-aminopiperidin-1-yl)-N-(8-fluoro-2-methylimidazo[1,2-a]pyridin-6-yl)-2-methoxybenzo[d]thiazole-4-carboxamide] | 100 to 1000 | 100 to 1000 | < 100 | < 100 |
| Cc1cn2cc(NC(=O)c3ccc(N4CCC(NC5CC5)CC4)c4cc(C)nn34)cc(F)c2n1 [Compound 209, 4-[4-(cyclopropylamino)-1-piperidyl]-N-(8-fluoro-2-methyl-imidazo[1,2-a]pyridin-6-yl)-2-methyl-pyrazolo[1,5-a]pyridine-7-carboxamide] | 100 to 1000 | 100 to 1000 | < 100 | < 100 |
| Cc1cn2cc(NC(=O)c3ccc(N4CCC(NC5CC5)CC4)n4cc(C)nc34)cc(F)c2n1 [Compound 210, 5-(4-(cyclopropylamino)piperidin-1-yl)-N-(8-fluoro-2-methylimidazo[1,2-a]pyridin-6-yl)-2-methylimidazo[1,2-a]-pyridine-8-carboxamide] | 100 to 1000 | 100 to 1000 | 100 to 1000 | < 100 |
